Legend:
Experiment in all cases: fluorescent HDAC activity assay (BIOMOL kit) with purified HDAC
Format in all cases: biochemical
[1] = biological target: HDAC2 (Homo sapiens, UniProt Q92769)
[2] = biological target: T1, HDAC6 (Homo sapiens, UniProt Q9UBN7)
T1 sequence (Q9UBN7 1-1215): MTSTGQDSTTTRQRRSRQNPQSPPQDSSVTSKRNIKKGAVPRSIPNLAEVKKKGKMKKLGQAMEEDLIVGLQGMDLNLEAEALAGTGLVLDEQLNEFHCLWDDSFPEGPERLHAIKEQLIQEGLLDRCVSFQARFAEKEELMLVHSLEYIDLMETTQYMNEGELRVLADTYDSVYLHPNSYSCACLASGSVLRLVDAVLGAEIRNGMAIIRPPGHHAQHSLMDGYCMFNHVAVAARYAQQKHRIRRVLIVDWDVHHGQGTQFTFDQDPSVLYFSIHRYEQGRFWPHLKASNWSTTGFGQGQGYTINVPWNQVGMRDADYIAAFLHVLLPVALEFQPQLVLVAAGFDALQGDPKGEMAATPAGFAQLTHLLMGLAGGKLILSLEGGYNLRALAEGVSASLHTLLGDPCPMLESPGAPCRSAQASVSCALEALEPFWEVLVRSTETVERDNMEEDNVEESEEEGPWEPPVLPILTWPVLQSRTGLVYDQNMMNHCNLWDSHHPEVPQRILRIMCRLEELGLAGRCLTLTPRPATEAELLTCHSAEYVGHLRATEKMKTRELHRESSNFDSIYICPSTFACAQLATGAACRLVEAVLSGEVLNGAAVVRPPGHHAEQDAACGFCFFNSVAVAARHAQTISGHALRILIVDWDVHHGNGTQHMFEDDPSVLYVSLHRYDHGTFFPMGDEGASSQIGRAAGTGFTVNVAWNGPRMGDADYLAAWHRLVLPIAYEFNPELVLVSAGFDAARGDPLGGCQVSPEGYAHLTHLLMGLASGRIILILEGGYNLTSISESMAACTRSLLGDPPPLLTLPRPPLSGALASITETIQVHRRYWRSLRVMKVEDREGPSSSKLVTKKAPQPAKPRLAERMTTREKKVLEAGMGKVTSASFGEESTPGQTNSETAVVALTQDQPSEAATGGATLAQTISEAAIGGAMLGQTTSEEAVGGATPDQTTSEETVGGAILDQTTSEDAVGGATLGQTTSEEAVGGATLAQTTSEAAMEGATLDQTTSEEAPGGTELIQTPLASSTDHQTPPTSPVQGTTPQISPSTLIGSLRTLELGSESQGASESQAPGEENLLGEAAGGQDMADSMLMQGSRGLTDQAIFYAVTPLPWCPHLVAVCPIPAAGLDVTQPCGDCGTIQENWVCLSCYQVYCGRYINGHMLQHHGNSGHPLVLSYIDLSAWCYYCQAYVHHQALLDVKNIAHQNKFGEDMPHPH

[3] = biological target: HDAC1 (Homo sapiens, UniProt Q13547)
Chain of HDAC1 (Q13547 whole entry): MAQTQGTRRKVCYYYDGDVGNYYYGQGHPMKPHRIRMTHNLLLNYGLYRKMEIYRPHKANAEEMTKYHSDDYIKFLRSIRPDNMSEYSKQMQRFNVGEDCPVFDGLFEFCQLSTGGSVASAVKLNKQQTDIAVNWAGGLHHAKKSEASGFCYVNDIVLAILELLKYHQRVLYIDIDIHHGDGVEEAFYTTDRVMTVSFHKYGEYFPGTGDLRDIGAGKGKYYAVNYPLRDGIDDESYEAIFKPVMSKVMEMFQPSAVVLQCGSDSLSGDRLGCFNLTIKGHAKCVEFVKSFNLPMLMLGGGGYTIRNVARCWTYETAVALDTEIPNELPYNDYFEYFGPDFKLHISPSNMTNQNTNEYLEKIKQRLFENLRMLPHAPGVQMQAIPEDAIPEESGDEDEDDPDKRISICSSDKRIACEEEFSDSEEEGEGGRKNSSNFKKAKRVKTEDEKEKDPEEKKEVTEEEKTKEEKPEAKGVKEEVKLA

[4] = biological target: T2, HDAC 3 (Homo sapiens, UniProt O15379)
T2 construct: gene HDAC3
T2 sequence (O15379 whole entry): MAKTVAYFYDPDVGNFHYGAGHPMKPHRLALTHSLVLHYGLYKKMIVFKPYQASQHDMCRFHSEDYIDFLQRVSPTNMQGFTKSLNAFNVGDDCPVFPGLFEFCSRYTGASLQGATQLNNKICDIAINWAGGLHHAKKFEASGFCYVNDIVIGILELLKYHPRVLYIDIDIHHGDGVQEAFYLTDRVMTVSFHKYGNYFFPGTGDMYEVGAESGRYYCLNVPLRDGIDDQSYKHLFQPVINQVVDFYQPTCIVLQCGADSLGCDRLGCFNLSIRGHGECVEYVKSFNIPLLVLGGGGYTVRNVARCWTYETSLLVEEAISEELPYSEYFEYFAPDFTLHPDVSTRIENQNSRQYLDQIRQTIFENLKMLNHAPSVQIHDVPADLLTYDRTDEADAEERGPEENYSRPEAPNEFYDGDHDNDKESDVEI

[5] = biological target: HDAC4 (Homo sapiens, UniProt P56524)
Chain of HDAC4 (P56524 whole entry): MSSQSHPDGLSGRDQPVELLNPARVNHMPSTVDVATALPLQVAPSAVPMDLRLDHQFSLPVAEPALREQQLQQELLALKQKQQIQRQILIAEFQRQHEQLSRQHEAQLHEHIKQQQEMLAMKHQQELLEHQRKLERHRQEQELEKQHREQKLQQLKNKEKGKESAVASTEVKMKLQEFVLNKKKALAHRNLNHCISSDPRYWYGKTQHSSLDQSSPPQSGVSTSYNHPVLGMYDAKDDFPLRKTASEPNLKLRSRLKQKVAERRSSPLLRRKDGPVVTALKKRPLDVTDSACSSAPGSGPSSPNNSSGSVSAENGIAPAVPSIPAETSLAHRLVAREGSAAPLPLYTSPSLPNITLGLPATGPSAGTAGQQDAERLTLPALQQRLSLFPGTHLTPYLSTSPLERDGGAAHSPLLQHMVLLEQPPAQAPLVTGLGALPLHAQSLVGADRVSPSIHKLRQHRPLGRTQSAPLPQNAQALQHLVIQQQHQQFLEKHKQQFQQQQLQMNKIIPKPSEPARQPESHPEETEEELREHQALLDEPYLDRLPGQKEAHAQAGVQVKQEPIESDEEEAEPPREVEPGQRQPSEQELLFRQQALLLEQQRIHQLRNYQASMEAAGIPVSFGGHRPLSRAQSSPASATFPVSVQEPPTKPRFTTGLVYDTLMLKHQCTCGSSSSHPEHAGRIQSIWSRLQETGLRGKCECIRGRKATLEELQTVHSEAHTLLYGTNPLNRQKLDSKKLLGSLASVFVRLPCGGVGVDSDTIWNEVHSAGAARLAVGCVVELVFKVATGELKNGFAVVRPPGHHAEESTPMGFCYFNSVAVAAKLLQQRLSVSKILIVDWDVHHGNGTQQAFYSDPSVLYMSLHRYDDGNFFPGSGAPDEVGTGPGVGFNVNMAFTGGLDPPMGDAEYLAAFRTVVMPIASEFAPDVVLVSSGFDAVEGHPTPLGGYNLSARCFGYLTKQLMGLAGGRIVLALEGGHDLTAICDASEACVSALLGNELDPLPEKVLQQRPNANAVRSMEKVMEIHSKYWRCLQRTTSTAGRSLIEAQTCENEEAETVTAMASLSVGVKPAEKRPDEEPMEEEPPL

[6] = biological target: HDAC5 (Homo sapiens, UniProt Q9UQL6)
Chain of HDAC5 (Q9UQL6 whole entry): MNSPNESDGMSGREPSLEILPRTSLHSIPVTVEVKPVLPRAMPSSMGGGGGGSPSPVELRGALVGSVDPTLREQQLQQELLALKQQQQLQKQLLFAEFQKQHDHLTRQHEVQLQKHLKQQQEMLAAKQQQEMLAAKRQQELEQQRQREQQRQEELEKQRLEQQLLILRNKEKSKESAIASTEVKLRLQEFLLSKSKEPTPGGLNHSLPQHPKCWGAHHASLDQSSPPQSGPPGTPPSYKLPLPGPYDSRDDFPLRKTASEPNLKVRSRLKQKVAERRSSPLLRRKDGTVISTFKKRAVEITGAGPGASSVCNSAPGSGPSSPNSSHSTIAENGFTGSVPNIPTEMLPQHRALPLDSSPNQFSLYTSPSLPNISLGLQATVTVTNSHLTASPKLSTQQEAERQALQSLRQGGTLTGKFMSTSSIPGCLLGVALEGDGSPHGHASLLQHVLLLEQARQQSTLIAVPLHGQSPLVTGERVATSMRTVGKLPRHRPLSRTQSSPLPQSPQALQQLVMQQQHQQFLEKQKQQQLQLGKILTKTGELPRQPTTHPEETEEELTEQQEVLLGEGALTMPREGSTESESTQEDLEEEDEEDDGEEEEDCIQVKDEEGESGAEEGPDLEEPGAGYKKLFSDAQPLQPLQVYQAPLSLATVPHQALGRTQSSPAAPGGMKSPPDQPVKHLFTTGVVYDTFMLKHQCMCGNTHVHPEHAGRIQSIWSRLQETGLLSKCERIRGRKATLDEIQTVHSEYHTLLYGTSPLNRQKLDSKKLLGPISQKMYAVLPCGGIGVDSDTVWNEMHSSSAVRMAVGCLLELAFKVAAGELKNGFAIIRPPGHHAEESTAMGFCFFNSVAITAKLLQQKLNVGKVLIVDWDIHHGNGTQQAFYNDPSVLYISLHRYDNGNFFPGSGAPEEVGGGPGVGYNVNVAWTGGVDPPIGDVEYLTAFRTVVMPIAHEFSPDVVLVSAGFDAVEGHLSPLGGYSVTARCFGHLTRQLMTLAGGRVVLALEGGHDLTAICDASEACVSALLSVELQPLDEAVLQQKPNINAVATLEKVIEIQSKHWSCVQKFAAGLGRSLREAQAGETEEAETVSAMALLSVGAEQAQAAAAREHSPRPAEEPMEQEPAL

Measured: IC50

Chain of HDAC2 (Q92769 whole entry): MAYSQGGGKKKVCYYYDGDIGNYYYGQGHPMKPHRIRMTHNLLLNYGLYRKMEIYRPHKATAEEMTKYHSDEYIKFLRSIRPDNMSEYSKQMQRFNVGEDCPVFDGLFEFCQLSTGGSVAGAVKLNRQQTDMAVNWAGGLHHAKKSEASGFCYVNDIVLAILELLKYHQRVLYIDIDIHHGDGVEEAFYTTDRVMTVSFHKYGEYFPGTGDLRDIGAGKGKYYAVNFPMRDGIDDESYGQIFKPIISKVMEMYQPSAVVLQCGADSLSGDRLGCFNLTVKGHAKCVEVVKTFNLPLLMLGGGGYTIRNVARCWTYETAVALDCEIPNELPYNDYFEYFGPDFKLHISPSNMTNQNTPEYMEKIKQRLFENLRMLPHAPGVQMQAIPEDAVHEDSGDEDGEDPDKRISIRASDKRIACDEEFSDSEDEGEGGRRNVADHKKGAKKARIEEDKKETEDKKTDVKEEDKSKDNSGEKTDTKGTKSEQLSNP

PAC-320
450 to 1390 nM: all assays above

From article PMC5787485, “HDAC inhibitor PAC-320 induces G2/M cell cycle arrest and apoptosis in human prostate cancer” (Oncotarget, 2017)
